Assay results as given in patent publication US20160347739A1, “5-OXOPYRROLIDINE DERIVATIVES AS HIV INTEGRASE INHIBITORS” (priority 2014, published 2016).
“Also recorded” adds a separate entry of the source.

Molecular target: T1, eGFP-MBP-IN-WT (HIV-1 integrase fusion protein) (Human immunodeficiency virus type 1 group M subtype B, UniProt P04585)
T1 construct: as well as integrase wild type (eGFP-MBP-IN-WT) DNA plasmid; expressed in transfected cells; host or cells: HEK 293T cells; plasmid from Dr. Mark A. Muesing (Rockefeller University)
Test: cellular integrase screening assay (C-terminal domain of HIV-1 IN nuclear import inhibition)
Type: cell-based
Details: HEK 293T cells transfected with eGFP-MBP-IN-WT plasmid; compounds at 10, 3.3, 1.1 and 0.33 μM, 0.1% DMSO; fluorescence microscopy
Experimental: In assessing suitability of a compound according to any of the formulas herein, an integrase screening assay can be conducted. In the present case, an exemplary such assay is a cellular integrase assay. A cellular integrase assay can be performed in a 24 well plate. The assay is designed to test compounds in 3-fold serial dilutions (10, 3.3, 1.1 and 0.33 μM) with 0.1% DMSO. Negative and positive control included eGFP-MBP-IN-R262/3/6A, eGFP-MBP-IN-K236/240 and eGFP-MBP-IN-WT respectively supplemented with 0.1% DMSO. Refinement of the assay for optimal results is feasible. For example, refinement herein yields the following protocol. HEK 293T cells (˜0.4*10̂5 cells/ml) are seeded and incubated at 37° C. (5% CO2) for ˜3 days on Poly-L-lysine treated glass coverslips until 80-90% confluent (˜3.2*10̂5 cells/ml). […] Images may be prepared using an Olympus 1X51 fluorescence microscope equipped with a camera by way of example. […]
As an integrase screening assay, a cellular integrase assay was performed in a 24 well plate. […] Slides were visualized and images, of at least 2 fields per glass disk, were taken with an Olympus 1X51 fluorescence microscope equipped with a camera. […]

N-(3-ethoxy propyl)-1-[2-(5-methyl-1H-indol-3-yl)ethyl]-5-oxopyrrolidine [compound 209]
localization phenotype of eGFP-MBP-IN-WT fusion protein (inhibition of nuclear import of IN): nuclear exclusion of the fusion protein; also recorded: exhibited inhibition against HIV to prevent nuclear import of the HIV integrase; also recorded: inhibition of nuclear import of IN
